Entries after “also recorded” stand apart in the source; their conditions may differ.
Legend:
SCG ex-plant = assay: Neurite out-growth in SCG ex-plants with minimal NGF; type: cell-based; conditions: 30 μM compound, 1 ng/mL NGF, after 2 days
Experimental: FIG. 3A is an SCG ex-plant cultured in the absence of NGF. No neurite extensions are visible. FIG. 3B. is an SCG ex-plant cultured in the presence of compound 23 (30 μM).
In order to determine if these compounds were capable of augmenting NGF signaling in vitro, compound was added to cultured SCG neurons in the presence of ‘minimal’ quantities of NGF. […] Similar results were obtained using NGF differentiated PC12 cells (not shown).

TrkA = TrkA Phosphorylation Assay in PC12 cells; type: cell-based; conditions: compound 10-50 μM, NGF 10 ng/mL, compared with NGF 50 ng/mL, Western blot/autoradiograph
Experimental: Lane PC12 624 cells not treated with NGF; Lane B—PC12 624 cells treated with NGF (50 ng/mL) for 24 hrs; Lane C—PC12 624 cells treated with NGF (50 ng/mL) for 30 minutes; Lane D—PC12 624 cells treated with NGF (10 ng/mL) and compound 23 (50 μM); Lane E—PC12 624 cells treated with NGF (10 ng/mL) and compound 23 (40 μM), Lane F—PC12 624 cells treated with NGF (10 ng/mL) and compound 23 (30 μM); Lane G—PC12 624 cells treated with NGF (10 ng/mL) and compound 23 (20 μM); Lane H—PC12 624 cells treated with a NGF (10 ng/mL) and compound 23 (10 μM); Lane I—PC12 624 cells treated with NGF (50 ng/mL) for 24 hours, and re-treated with NGF (50 ng/mL) for 30 minutes; Lane J—PC12 624 cells treated with NGF (50 ng/mL) for 30 minutes.
TrkA phosphorylation may be monitored using Trk anti-bodies and Western blot analysis. […] In PC12 expressing cells, this effect is most robust at 30 minutes when 50 ng/mL of NGF is used.
TrkA Phosphorylation Assay: Culture media was removed from cultured PC12 cells (106-107, 50% confluent) and media containing NGF (1 to 50 ng/mL), 0.1% BSA, and compound (1 to 30 μM) was added. The cells were incubated for 1 to 60 minutes, the media was removed and the cells washed twice with ice cold TBS solution. […]

**Q.** How did the neurite outgrowth (SCG ex-plant) turn out when `O=c1oc2c(Sc3ccc4ccccc4c3)cc(O)cc2s1` [Compound 23, 5-Hydroxy-7-((2-naphthy)sulfanyl)benzo[1,3]oxathiol-2-one] was run?
**A.** Numerous ordered neurites are present; also recorded: visibly comparable to that observed under ‘optimal’ NGF concentrations

**Q.** What about the TrkA phosphorylation (TrkA) of the same compound?
**A.** maintains the level of TrkA phosphorylation even after 24 hours; also recorded: Comparable levels of TrkA phosphorylation
